Measured values as given in ChEMBL document CHEMBL2440112, “Structure-activity relationships of the aromatic site in novel anticonvulsant pyrrolo[1,2-a]pyrazine derivatives” (Bioorg Med Chem Lett, 2013).
The source made the active and inactive calls. The calls are words filed in the database; no cut-off is given here.

How the values were obtained:
Mus musculus [1] = experiment: Neurotoxicity in albino mouse minimal clonic seizure model assessed as minimal motor impairment at 100 mg/kg, ip after 4 hrs by rotorod test; assay type: toxicity, organism-based; design: dose 100 mg/kg, route intraperitoneal; conditions: in vivo
Mus musculus [2] = experiment: Neurotoxicity in albino mouse minimal clonic seizure model assessed as minimal motor impairment at 100 mg/kg, ip after 2 hrs by rotorod test; assay type: toxicity, organism-based; design: dose 100 mg/kg, route intraperitoneal; conditions: in vivo
Mus musculus [3] = experiment: Neurotoxicity in albino mouse minimal clonic seizure model assessed as minimal motor impairment at 100 mg/kg, ip after 1 hr by rotorod test; assay type: toxicity, organism-based; design: dose 100 mg/kg, route intraperitoneal; conditions: in vivo
Mus musculus [4] = experiment: Neurotoxicity in albino mouse minimal clonic seizure model assessed as minimal motor impairment at 100 mg/kg, ip after 0.5 hrs by rotorod test; assay type: toxicity, organism-based; design: dose 100 mg/kg, route intraperitoneal; conditions: in vivo
Mus musculus [5] = experiment: Neurotoxicity in albino mouse minimal clonic seizure model assessed as minimal motor impairment at 100 mg/kg, ip after 0.25 hrs by rotorod test; assay type: toxicity, organism-based; design: dose 100 mg/kg, route intraperitoneal; conditions: in vivo
Mus musculus [6] = experiment: Anticonvulsant activity in albino mouse assessed as protection against 6 Hz psychomotor seizure at 100 mg/kg, ip after 4 hrs by minimal clonic seizure test; assay type: functional, organism-based; design: dose 100 mg/kg
Mus musculus [7] = experiment: Anticonvulsant activity in albino mouse assessed as protection against 6 Hz psychomotor seizure at 100 mg/kg, ip after 2 hrs by minimal clonic seizure test; assay type: functional, organism-based; design: dose 100 mg/kg
Mus musculus [8] = experiment: Anticonvulsant activity in albino mouse assessed as protection against 6 Hz psychomotor seizure at 100 mg/kg, ip after 1 hr by minimal clonic seizure test; assay type: functional, organism-based; design: dose 100 mg/kg
Mus musculus [9] = experiment: Anticonvulsant activity in albino mouse assessed as protection against 6 Hz psychomotor seizure at 100 mg/kg, ip after 0.5 hrs by minimal clonic seizure test; assay type: functional, organism-based; design: dose 100 mg/kg
Mus musculus [10] = experiment: Anticonvulsant activity in albino mouse assessed as protection against 6 Hz psychomotor seizure at 100 mg/kg, ip after 0.25 hrs by minimal clonic seizure test; assay type: functional, organism-based; design: dose 100 mg/kg
Rattus norvegicus = experiment: Anticonvulsant activity in po dosed albino Sprague-Dawley rat assessed as protection against maximal electroshock-induced seizures after […] to 4 hrs; assay type: functional, organism-based
Mus musculus [11] = experiment: Neurotoxicity in albino mouse assessed as minimal motor impairment at 100 mg/kg, ip after 4 hrs by rotorod test; assay type: toxicity, organism-based; design: dose 100 mg/kg, route intraperitoneal; conditions: in vivo
Mus musculus [12] = experiment: Neurotoxicity in albino mouse assessed as minimal motor impairment at 100 mg/kg, ip after 1 hr by rotorod test; assay type: toxicity, organism-based; design: dose 100 mg/kg, route intraperitoneal; conditions: in vivo
Mus musculus [13] = experiment: Neurotoxicity in albino mouse assessed as minimal motor impairment at 100 mg/kg, ip after 0.5 hrs by rotorod test; assay type: toxicity, organism-based; design: dose 100 mg/kg, route intraperitoneal; conditions: in vivo
Mus musculus [14] = experiment: Neurotoxicity in albino mouse assessed as minimal motor impairment at 100 mg/kg, ip after 0.25 hrs by rotorod test; assay type: toxicity, organism-based; design: dose 100 mg/kg, route intraperitoneal; conditions: in vivo
Mus musculus [15] = experiment: Anticonvulsant activity in albino mouse assessed as protection against subcutaneous metrazole-induced seizures at 100 mg/kg, ip after 4 hrs; assay type: functional, organism-based; design: dose 100 mg/kg
Mus musculus [16] = experiment: Anticonvulsant activity in albino mouse assessed as protection against subcutaneous metrazole-induced seizures at 100 mg/kg, ip after 0.5 hrs; assay type: functional, organism-based; design: dose 100 mg/kg
Mus musculus [17] = experiment: Anticonvulsant activity in albino mouse assessed as protection against maximal electroshock-induced seizures at 100 mg/kg, ip after 4 hrs; assay type: functional, organism-based; design: dose 100 mg/kg
Mus musculus [18] = experiment: Anticonvulsant activity in albino mouse assessed as protection against maximal electroshock-induced seizures at 100 mg/kg, ip after 1 hr; assay type: functional, organism-based; design: dose 100 mg/kg
Mus musculus [19] = experiment: Anticonvulsant activity in albino mouse assessed as protection against maximal electroshock-induced seizures at 100 mg/kg, ip after 0.5 hrs; assay type: functional, organism-based; design: dose 100 mg/kg
Mus musculus [20] = experiment: Anticonvulsant activity in albino mouse assessed as protection against maximal electroshock-induced seizures at 100 mg/kg, ip after 0.25 hrs; assay type: functional, organism-based; design: dose 100 mg/kg
Mus musculus [21] = experiment: Anticonvulsant activity in ip dosed albino mouse assessed as protection against 6 Hz psychomotor seizure by minimal clonic seizure test; assay type: functional
[22] = Neurotoxicity in ip dosed albino mouse minimal clonic seizure model assessed as minimal motor impairment by rotorod test; assay type: toxicity, organism-based; conditions: in vivo
Mus musculus [23] = species: Mus musculus; experiment: Protective index, ratio of TD50 for albino mouse minimal clonic seizure model to ED50 for albino mouse assessed as protection against 6 Hz psychomotor seizure; assay type: functional
Mus musculus [24] = experiment: Anticonvulsant activity in ip dosed albino mouse assessed as time of peak effect for protection against 6 Hz psychomotor seizure by minimal clonic seizure test; assay type: functional
Mus musculus [25] = experiment: Anticonvulsant activity in albino mouse assessed as protection against subcutaneous metrazole-induced seizures at 100 mg/kg, ip after 1 hr; assay type: functional, organism-based; design: dose 100 mg/kg
Mus musculus [26] = experiment: Anticonvulsant activity in albino mouse assessed as protection against subcutaneous metrazole-induced seizures at 100 mg/kg, ip after 0.25 hrs; assay type: functional, organism-based; design: dose 100 mg/kg

SMILES | Activity (Rattus norvegicus) | Activity (Mus musculus [11]) | Activity (Mus musculus [12]) | Activity (Mus musculus [13]) | Activity (Mus musculus [14]) | Activity (Mus musculus [15]) | Activity (Mus musculus [16]) | Activity (Mus musculus [17]) | Activity (Mus musculus [18]) | Activity (Mus musculus [19]) | Activity (Mus musculus [20]) | other results
COc1ccccc1[C@H]1C(=O)NC(=O)[C@@H]2CCCN12 | inactive | Non-toxic | Non-toxic | Non-toxic | Non-toxic | inactive | inactive | inactive | inactive | inactive | inactive | Activity (Mus musculus [1]): Non-toxic; Activity (Mus musculus [2]): Non-toxic; Activity (Mus musculus [3]): Non-toxic; Activity (Mus musculus [4]): Non-toxic; Activity (Mus musculus [5]): Non-toxic; Activity (Mus musculus [6]): inactive; Activity (Mus musculus [7]): inactive; Activity (Mus musculus [8]): Active; Activity (Mus musculus [9]): Active; Activity (Mus musculus [10]): Active
O=C1NC(=O)[C@@H]2CCCN2[C@H]1c1cccc2ccccc12 | inactive | Non-toxic |  | Non-toxic |  | inactive | inactive | inactive |  | inactive |  | 
O=C1NC(=O)[C@@H]2CCCN2[C@H]1c1cccs1 | inactive | Non-toxic | Non-toxic | Non-toxic | Toxic | inactive | inactive | inactive |  | Active |  | 
Cc1ccc([C@H]2C(=O)NC(=O)[C@@H]3CCCN23)cc1 | inactive | Non-toxic | Non-toxic | Non-toxic | Non-toxic | inactive | inactive | inactive | inactive | inactive | inactive | Activity (Mus musculus [6]): inactive; Activity (Mus musculus [7]): inactive; Activity (Mus musculus [8]): Active; Activity (Mus musculus [9]): Active; Activity (Mus musculus [10]): Active; ED50 (Mus musculus [21]): 41.7 mg/kg; TD50 [22]: 167 mg/kg; Ratio TD50/ED50 (Mus musculus [23]): 4; Time (Mus musculus [24]): 0.25 h
O=C1NC(=O)C(c2ccccc2)(c2ccccc2)N1 [PHENYTOIN] |  |  |  |  |  |  |  |  |  |  |  | ED50 (Mus musculus [21]): > 60 mg/kg
COc1cccc([C@H]2C(=O)NC(=O)[C@@H]3CCCN23)c1 | inactive | Non-toxic | Non-toxic | Non-toxic | Non-toxic | inactive | inactive | inactive | inactive | Active | Active | Activity (Mus musculus [25]): inactive; Activity (Mus musculus [26]): inactive
O=C1NC(=O)[C@@H]2CCCN2[C@H]1c1ccoc1 | inactive | Non-toxic |  | Non-toxic |  | inactive | inactive | inactive |  | inactive |  | 
